Columns and labels:
786-O-Hif-Luc cells = assay: Luciferase Assay (HIF responsive elements reporter); conditions: read-out: Mean Luciferase EC50 (nM), 786-O-Hif-Luc cells
Protocol: A pool of infected cells were then selected against 2 μg/mL of puromycin (P8833, Sigma) for 10 days followed by limited dilution to select single clones. […] Each concentration was tested in triplicate. After about 24 hours, luciferase activity was determined using ONE-Glo Luciferase Assay Reagent (E6110, Promega) following the manufacturer's recommended procedure. EC50 were calculated using Dotmatics software.

[1] = target: T1, HIF-2α HIS TAG-PASB Domain (Homo sapiens, UniProt Q99814); assay: HIF-2α Scintillation Proximity Assay (SPA); format: binding; conditions: read-out: Scintillation Proximity Assay IC50
T1 construct: 100 nM HIF-2α HIS TAG-PASB Domain
In short: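 IC50 values rest on percent inhibition, where the sample signal is scaled between high and low controls. Wells contain about 100 μL: compound dispensed as 2 μL of DMSO solution, 88 μL protein-probe mix and 10 μL of beads.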

T1 sequence (Q99814 240-350 limits assumed): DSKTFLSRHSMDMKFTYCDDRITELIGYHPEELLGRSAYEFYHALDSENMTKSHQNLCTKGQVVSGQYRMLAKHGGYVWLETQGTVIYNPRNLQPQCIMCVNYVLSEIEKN

| EC50 (786-O-Hif-Luc cells) [nM] | IC50 [1] [nM] | SMILES |
| --- | --- | --- |
| 250 to 1000 | < 50 | O=Cc1c(S(=O)(=O)C(F)(F)F)ccc(Oc2cc(F)cc(Cl)c2)c1Cl [Compound 112] |
| > 1000 | 250 to 1000 | CCCOc1ccc(C(F)(F)F)c2c1CC(F)(F)/C2=N\O [Compound 703] |
| < 50 | < 50 | C[C@]1(C#N)C[C@@H](Oc2ccc(S(=O)(=O)C(F)(F)F)c3c2C[C@@H](F)[C@H]3O)C1 [Compound 794] |
| > 1000 | 50 to 249 | N#CN=S1(=O)c2ccc(Oc3cc(F)cc(F)c3)c(Cl)c2[C@@H](O)C1(F)F (some centres unmarked) [Compound 412] |
| > 1000 | < 50 | Cc1c(S(=O)(=O)C(F)F)ccc(Oc2cc(F)cc(Cl)c2)c1C#N [Compound 32] |
| > 1000 | > 1000 | O=S(=O)(c1ccc(Oc2cc(F)cc(Cl)c2)c(Cl)c1CNCCF)C(F)(F)F [Compound 114] |
| 50 to 249 | 50 to 249 | O=S(=O)(c1ccc(OC2CCOC2)c2c1C(O)C(F)(F)C2)C(F)(F)F (centres unmarked) [Compound 604] |
| 50 to 249 | < 50 | COc1cc(F)cc(Oc2ccc(S(=O)(=O)C(F)F)c3c2CC[C@H]3O)c1 [Compound 6] |
| 250 to 1000 | < 50 | CS(=O)(=O)c1ccc(OC2CCC2)c2c1[C@H](O)C(F)(F)[C@@H]2F [Compound 753] |
| < 50 | < 50 | C[C@]1(C#N)C[C@@H](Oc2ccc(S(=O)(=O)C(F)(F)F)c3c2CC(F)(F)[C@H]3O)C1 [Compound 789] |
| 250 to 1000 | 250 to 1000 | O=S(=O)(c1ccc(Oc2cncc(F)c2)c2c1[C@H](O)CC2)C(F)F [Compound 5] |
| 250 to 1000 | < 50 | CS(=O)(=O)c1ccc(Oc2cc(F)cc(Cl)c2)c(C(F)F)c1C#N [Compound 92] |
| 50 to 249 | 50 to 249 | CC1(C)CC[C@@H](O)[C@H](c2ccc(S(=O)(=O)C(F)(F)F)c3c2CC(F)(F)[C@H]3O)C1 [Compound 547] |
| > 1000 | > 1000 | O=S(=O)(c1ccc(-c2ccccc2Cl)c2c1[C@H](O)C(F)(F)C2)C(F)(F)F [Compound 565] |
| 250 to 1000 | < 50 | O=S(=O)(c1ccc(Oc2cc(F)cc(F)c2)c(Cl)c1CO)C(F)F [Compound 168] |
| > 1000 | > 1000 | CS(=O)(=O)c1ccc(O[C@H]2C[C@](C)(C#N)C2)c2c1[C@H](O)C(F)(F)[C@@H]2F [Compound 767] |
| > 1000 | 250 to 1000 | O=S(=O)(c1ccc(Oc2ccc(F)c(Cl)c2)c2c1C(O)CC2)C(F)(F)F (centres unmarked) [Compound 218] |
| > 1000 | 50 to 249 | N#Cc1cc(F)cc(Oc2ccc(S(=O)(=O)C(F)(F)F)cc2Br)c1 [Compound 118] |
| 250 to 1000 | 50 to 249 | O=S(=O)(c1ccc(OC2CC3(COC3)C2)c2c1[C@H](O)C(F)(F)C2)C(F)(F)F [Compound 718] |
| 250 to 1000 | 50 to 249 | N#Cc1c(S(=O)(=O)C(F)F)ccc(Oc2cc(F)cc(Cl)c2)c1Cl [Compound 38] |
| 50 to 249 | < 50 | O=S(=O)(CF)c1ccc(Oc2cc(F)cc(F)c2)c2c1C(O)CC2 (centres unmarked) [Compound 59] |

| EC50 (786-O-Hif-Luc cells) [nM] | IC50 [1] [nM] | SMILES |
| --- | --- | --- |
| 250 to 1000 | < 50 | Cc1cc(Oc2ccc(S(=O)(=O)C(F)F)c3c2CC(F)(F)[C@H]3O)ccc1F [Compound 198] |
| > 1000 | 250 to 1000 | N#Cc1cccc(Oc2ccc(S(=O)(=O)C(F)F)c(C#N)c2Cl)c1 [Compound 40] |
| 250 to 1000 | 250 to 1000 | CC(Oc1ccc(S(=O)(=O)C(F)(F)F)c2c1CC(F)(F)[C@H]2O)C1(C#N)CC1 (some centres unmarked) [Compound 748] |
| 250 to 1000 | 50 to 249 | CS(=O)(=O)c1ccc(OC2CCC(F)(F)CC2)c2c1[C@H](O)C(F)(F)[C@@H]2F [Compound 771] |
| > 1000 | 50 to 249 | O=S(=O)(c1ccc(Oc2cc(F)cc(F)c2)c2c1C=CC2)C(F)F [Compound 21] |
| > 1000 | > 1000 | Cc1nnc(/C=C/c2c(S(=O)(=O)C(F)(F)F)ccc(Oc3cc(F)cc(C#N)c3)c2C)o1 [Compound 151] |
| 250 to 1000 | 50 to 249 | CS(=O)(=O)c1ccc(Oc2cc(F)cc(Cl)c2)c2c1C(O)CC2 (centres unmarked) [Compound 90] |
| 50 to 249 | 50 to 249 | O=S(=O)(c1ccc(OCC2CC2)c2c1C(O)C(F)(F)C2)C(F)(F)F (centres unmarked) [Compound 598] |
| > 1000 | 50 to 249 | CS(=O)(=O)c1ccc(O[C@H]2C[C@H](F)C2)c2c1[C@H](O)C(F)(F)[C@H]2F [Compound 737] |
| > 1000 | 50 to 249 | CC1(C)CC[C@@H](O)[C@@H](c2ccc(S(=O)(=O)C(F)(F)F)c3c2CC(F)(F)[C@H]3O)C1 [Compound 545] |
| > 1000 | 50 to 249 | N#Cc1cc(F)cc(Oc2ccc(S(=O)(=O)C(F)(F)F)c(C#N)c2Br)c1 [Compound 100] |
| 50 to 249 | < 50 | COCC(C)Oc1ccc(S(=O)(=O)C(F)(F)F)c2c1CC(F)(F)C2O (centres unmarked) [Compound 594] |
| > 1000 | 250 to 1000 | Cc1cc(S(=O)(=O)C(F)F)ccc1Oc1cc(F)cc(Cl)c1 [Compound 135] |
| 250 to 1000 | 50 to 249 | O=S(=O)(c1ccc(OC2CCCCC2)c2c1C(O)CC2)C(F)(F)F (centres unmarked) [Compound 616] |
| < 50 | < 50 | CC(Oc1ccc(S(=O)(=O)C(F)(F)F)c2c1CC(F)(F)C2O)C1CC1 (centres unmarked) [Compound 746] |
| < 50 | < 50 | O=S(=O)(c1ccc(OC2CCC2)c2c1C(O)C(F)(F)C2)C(F)(F)F (centres unmarked) [Compound 602] |
| 50 to 249 | 50 to 249 | N#Cc1cncc(Nc2ccc(S(=O)(=O)C(F)(F)F)c3c2CC(F)(F)[C@H]3O)c1 [Compound 488, (S)-5-((2,2-difluoro-1-hydroxy-7-((trifluoromethyl)sulfonyl)-2,3-dihydro-1H-inden-4-yl)amino)nicotinonitrile] |
| 250 to 1000 | 250 to 1000 | N#CCC1(COc2ccc(S(=O)(=O)C(F)(F)F)c3c2CC(F)(F)[C@H]3O)COC1 [Compound 707] |
| > 1000 | < 50 | Cc1c(Oc2cc(F)cc(Cl)c2)ccc(S(=O)(=O)C(F)(F)F)c1Cl [Compound 143] |
| > 1000 | 250 to 1000 | O=S(=O)(c1ccc(CCO)c2c1[C@H](O)C(F)(F)C2)C(F)(F)F [Compound 496, (S)-2,2-difluoro-4-(2-hydroxyethyl)-7-((trifluoromethyl)sulfonyl)-2,3-dihydro-1H-inden-1-ol] |
| > 1000 | 50 to 249 | CS(=O)(=O)c1ccc(OCC(F)F)c2c1[C@H](O)C(F)(F)[C@@H]2F [Compound 755] |

| EC50 (786-O-Hif-Luc cells) [nM] | IC50 [1] [nM] | SMILES |
| --- | --- | --- |
| 250 to 1000 | 50 to 249 | COC[C@H](C)Oc1ccc(S(=O)(=O)C(F)(F)F)c2c1CC(F)(F)[C@H]2O [Compound 660] |
| 50 to 249 | < 50 | N#Cc1cc(F)cc(Oc2ccc(S(=O)(=O)CF)c3c2CC[C@H]3O)c1 [Compound 62] |
| 250 to 1000 | 50 to 249 | CCCOc1ccc(I)c2c1CC(F)(F)C2O (centres unmarked) [Compound 682] |
| 250 to 1000 | 250 to 1000 | CC1(COc2ccc(S(=O)(=O)C(F)(F)F)c3c2CC(F)(F)C3O)COC1 (centres unmarked) [Compound 622] |
| 250 to 1000 | 50 to 249 | N#Cc1cc(Oc2ccc3c(c2C(F)F)[C@@H](O)C(F)(F)S3(=O)=O)ccc1F [Compound 437] |
| > 1000 | > 1000 | CCc1ccc(S(=O)(=O)C(F)(F)F)c2c1CC(F)(F)C2O (centres unmarked) [Compound 516] |
| > 1000 | 50 to 249 | CC1(C)CC(c2ccc(S(=O)(=O)C(F)(F)F)c3c2CC(F)(F)[C@H]3O)=CC(O)C1 (some centres unmarked) [Compound 551] |
| > 1000 | 250 to 1000 | CS(=O)(=O)c1ccc(Oc2cc(F)cc(C#N)c2)c2c1C(=O)C(F)(Cl)C2 (centres unmarked) [Compound 269] |
| 50 to 249 | < 50 | O[C@H]1c2c(C(F)(F)F)ccc(OCC(F)F)c2[C@@H](F)C1(F)F [Compound 699] |
| > 1000 | 250 to 1000 | CS(=O)(=O)c1ccc(OCC2(C#N)CC2)c2c1[C@H](O)C(F)(F)[C@@H]2F [Compound 754] |
| 250 to 1000 | 250 to 1000 | N#Cc1cc(F)cc(Oc2ccc3c(c2F)C(O)C(F)(F)S3(=O)=O)c1 (centres unmarked) [Compound 434] |
| 250 to 1000 | 250 to 1000 | Cc1cc(Oc2cc(F)cc(C#N)c2)c2c(c1S(C)(=O)=O)C(O)C(F)(F)C2 (centres unmarked) [Compound 213] |
| 50 to 249 | 50 to 249 | O=S(=O)(c1ccc([C@@H]2CCC[C@@H](O)C2)c2c1[C@H](O)C(F)(F)C2)C(F)(F)F [Compound 480, (S)-2,2-difluoro-4-((1R,3R)-3-hydroxycyclohexyl)-7-((trifluoromethyl)sulfonyl)-2,3-dihydro-1H-inden-1-ol] |
| 250 to 1000 | 50 to 249 | CS(=O)(=O)c1ccc(OCC2CC(F)(F)C2)c2c1[C@H](O)C(F)(F)[C@@H]2F [Compound 759] |
| 250 to 1000 | < 50 | Cc1c(S(C)(=O)=O)ccc(Oc2cc(F)cc(F)c2)c1C#N [Compound 52] |
| 250 to 1000 | < 50 | CC(Oc1ccc(S(C)(=O)=O)c2c1[C@@H](F)C(F)(F)[C@H]2O)C(F)F (some centres unmarked) [Compound 774] |
| 250 to 1000 | 250 to 1000 | CS(=O)(=O)c1ccc(Oc2cncc(Cl)c2)c2c1[C@H](O)C(F)(F)C2 [Compound 115] |
| 50 to 249 | < 50 | O=S(=O)(c1ccc(Oc2cc(F)cc(Cl)c2)c2c1[C@H](O)CC2)C(F)(F)F [Compound 56] |
| > 1000 | 50 to 249 | O=S(=O)(c1ccc(Oc2ccc(F)c(F)c2)c2c1C(O)CC2)C(F)(F)F (centres unmarked) [Compound 214] |
| > 1000 | > 1000 | CS(=O)(=O)c1ccc(Oc2cncc(C#N)c2)c2c1[C@H](O)[C@H](F)C2 [Compound 313] |
| < 50 | – | N#Cc1cc(F)cc(Oc2ccc(S(=O)(=O)C(F)F)c3c2CC(F)(F)C3O)c1 (centres unmarked) [Compound 11] |

Source: US10278942B2 (PELOTON THERAPEUTICS, INC., priority 2015, dated 2019)
